Laboratory results published in ChEMBL document CHEMBL4616601, “Meeting organometallic chemistry with drug discovery: CH activation enabled discovery of a new ring system of 12H-Indazolo[2,1-a]cinnolin-12-ones with anti-proliferation activity” (Bioorg Med Chem Lett, 2020).
Calls of active or inactive are those of the source. No rule for the calls is given here.

What was measured:
[1] = tested on: HeLa; test: Antiproliferative activity against human HeLa cells assessed as reduction in cell viability; assay type: functional, cell-based
[2] = tested on: PC-3; test: Induction of cell cycle arrest in human PC3 cells assessed as accumulation at G1 phase at 50 nM after 24 hrs by flow cytometry (reference value: 56.46%); assay type: functional
[3] = tested on: PC-3; test: Induction of apoptosis in human PC3 cells assessed as necrotic cells at 250 nM after 24 hrs by Annexin V-FITC/propidium iodide staining-based flow cytometry (reference value: 0.58%); assay type: functional
[4] = tested on: DU-145; test: Antiproliferative activity against human DU145 cells assessed as reduction in cell viability; assay type: functional, cell-based
[5] = tested on: PC-3; test: Induction of apoptosis in human PC3 cells assessed as early apoptotic cells at 50 nM after 24 hrs by Annexin V-FITC/propidium iodide staining-based flow cytometry (reference value: 11.88%); assay type: functional
[6] = tested on: PC-3; test: Induction of cell cycle arrest in human PC3 cells assessed as accumulation at G2/M phase at 100 nM after 24 hrs by flow cytometry (reference value: 18.81%); assay type: functional
[7] = tested on: PC-3; test: Inhibition of colony formation in human PC3 cells at 250 nM after 1 week relative to control; assay type: functional; settings: PC-3, 168 h
[8] = tested on: PC-3; test: Induction of cell cycle arrest in human PC3 cells assessed as accumulation at G2/M phase at 50 nM after 24 hrs by flow cytometry (reference value: 18.81%); assay type: functional
[9] = tested on: PC-3; test: Inhibition of colony formation in human PC3 cells after 1 week; assay type: functional, cell-based
[10] = tested on: PC-3; test: Induction of cell cycle arrest in human PC3 cells assessed as accumulation at S phase at 50 nM after 24 hrs by flow cytometry (reference value: 24.73%); assay type: functional
[11] = tested on: SK-BR-3; test: Antiproliferative activity against human SKBR3 cells assessed as reduction in cell viability; assay type: functional, cell-based
[12] = tested on: PC-3; test: Induction of apoptosis in human PC3 cells assessed as reduction in PARP expression level after 24 hrs by Western blot analysis; assay type: functional, cell-based
[13] = tested on: PC-3; test: Induction of cell cycle arrest at G2/M phase in human PC3 cells assessed as increase in cyclin B1 expression after 24 hrs by Western blot analysis; assay type: functional, cell-based
[14] = tested on: PC-3; test: Induction of apoptosis in human PC3 cells assessed as early apoptotic cells at 250 nM after 24 hrs by Annexin V-FITC/propidium iodide staining-based flow cytometry (reference value: 11.88%); assay type: functional
[15] = tested on: PC-3; test: Induction of cell cycle arrest in human PC3 cells assessed as accumulation at S phase at 250 nM after 24 hrs by flow cytometry (reference value: 24.73%); assay type: functional
[16] = tested on: PC-3; test: Induction of apoptosis in human PC3 cells assessed as late apoptotic cells at 50 nM after 24 hrs by Annexin V-FITC/propidium iodide staining-based flow cytometry (reference value: 12.21%); assay type: functional
[17] = tested on: PC-3; test: Induction of cell cycle arrest in human PC3 cells assessed as accumulation at G2/M phase at 250 nM after 24 hrs by flow cytometry (reference value: 18.81%); assay type: functional
[18] = tested on: PC-3; test: Induction of apoptosis in human PC3 cells after 24 hrs by Annexin V-FITC/propidium iodide staining-based flow cytometry; assay type: functional, cell-based
[19] = tested on: HepG2; test: Antiproliferative activity against human HepG2 cells assessed as reduction in cell viability; assay type: functional, cell-based
[20] = tested on: PC-3; test: Inhibition of colony formation in human PC3 cells at 50 nM after 1 week relative to control; assay type: functional; settings: PC-3, 168 h
[21] = tested on: PC-3; test: Induction of apoptosis in human PC3 cells assessed as necrotic cells at 50 nM after 24 hrs by Annexin V-FITC/propidium iodide staining-based flow cytometry (reference value: 0.58%); assay type: functional
[22] = tested on: PC-3; test: Induction of apoptosis in human PC3 cells assessed as reduction in caspase-3 expression after 24 hrs by Western blot analysis; assay type: functional, cell-based
[23] = tested on: PC-3; test: Antiproliferative activity against human PC3 cells assessed as reduction in cell viability after 72 hrs by CCK8 assay; assay type: functional, cell-based; settings: PC-3, 72 h
[24] = tested on: PC-3; test: Induction of apoptosis in human PC3 cells assessed as necrotic cells at 100 nM after 24 hrs by Annexin V-FITC/propidium iodide staining-based flow cytometry (reference value: 0.58%); assay type: functional
[25] = tested on: SW1990; test: Antiproliferative activity against human SW1990 cells assessed as reduction in cell viability; assay type: functional, cell-based
[26] = tested on: PC-3; test: Induction of cell cycle arrest in human PC3 cells assessed as accumulation at G1 phase at 250 nM after 24 hrs by flow cytometry (reference value: 56.46%); assay type: functional
[27] = tested on: PC-3; test: Induction of apoptosis in human PC3 cells assessed as viable cells at 100 nM after 24 hrs by Annexin V-FITC/propidium iodide staining-based flow cytometry (reference value: 75.33%); assay type: functional; settings: PC-3, 24 h, read-out: Activity
[28] = tested on: PC-3; test: Induction of cell cycle arrest in human PC3 cells assessed as accumulation at G1 phase at 100 nM after 24 hrs by flow cytometry (reference value: 56.46%); assay type: functional
[29] = tested on: PC-3; test: Induction of apoptosis in human PC3 cells assessed as viable cells at 50 nM after 24 hrs by Annexin V-FITC/propidium iodide staining-based flow cytometry (reference value: 75.33%); assay type: functional; settings: PC-3, 24 h, read-out: Activity
[30] = tested on: PC-3; test: Induction of apoptosis in human PC3 cells assessed as viable cells at 250 nM after 24 hrs by Annexin V-FITC/propidium iodide staining-based flow cytometry (reference value: 75.33%); assay type: functional; settings: PC-3, 24 h, read-out: Activity
[31] = tested on: PC-3; test: Antiproliferative activity against human PC3 cells assessed as inhibition of cell viability at 0.5 to 5 uM after 72 hrs by CCK8 assay; assay type: functional, cell-based
[32] = tested on: PC-3; test: Induction of apoptosis in human PC3 cells assessed as late apoptotic cells at 250 nM after 24 hrs by Annexin V-FITC/propidium iodide staining-based flow cytometry (reference value: 12.21%); assay type: functional
[33] = tested on: PC-3; test: Induction of apoptosis in human PC3 cells assessed as late apoptotic cells at 100 nM after 24 hrs by Annexin V-FITC/propidium iodide staining-based flow cytometry (reference value: 12.21%); assay type: functional
[34] = tested on: PC-3; test: Antiproliferative activity against human PC3 cells at 0.5 uM assessed as inhibition of cell viability after 72 hrs by CCK-8 assay relative to control; assay type: functional; settings: PC-3, 72 h
[35] = tested on: PC-3; test: Induction of apoptosis in human PC3 cells assessed as increase in PARP cleavage after 24 hrs by Western blot analysis; assay type: functional, cell-based
[36] = tested on: PC-3; test: Induction of cell cycle arrest in human PC3 cells assessed as accumulation at S phase at 100 nM after 24 hrs by flow cytometry (reference value: 24.73%); assay type: functional
[37] = tested on: PANC-1; test: Antiproliferative activity against human PANC1 cells assessed as reduction in cell viability after 72 hrs; assay type: functional, cell-based; settings: PANC-1, 72 h
[38] = tested on: PC-3; test: Induction of apoptosis in human PC3 cells assessed as early apoptotic cells at 100 nM after 24 hrs by Annexin V-FITC/propidium iodide staining-based flow cytometry (reference value: 11.88%); assay type: functional
[39] = tested on: HCT-116; test: Antiproliferative activity against human HCT116 cells assessed as reduction in cell viability; assay type: functional, cell-based
[40] = tested on: NCI-H1299; test: Antiproliferative activity against human NCI-H1299 cells assessed as reduction in cell viability; assay type: functional, cell-based
[41] = tested on: PC-3; test: Induction of cell cycle arrest at G2/M phase in human PC3 cells assessed as increase in CDC2 expression after 24 hrs by Western blot analysis; assay type: functional, cell-based
[42] = tested on: PC-3; test: Induction of cell cycle arrest in human PC3 cells assessed as accumulation at G2/M phase after 24 hrs by flow cytometry; assay type: functional, cell-based

Which results are given for `CCOC(=O)c1c(C)n2c3ccccc3c(=O)n2c2ccc3c(c12)OCO3`?
IC50 [1]: 41 to 188 nM; Activity [2]: 55.12%; Activity [3]: 4.97%; IC50 [4]: 41 to 188 nM; Activity [5]: 25.82%; Activity [6]: 30.65%; inhibition at 0.25 µM [7]: 98%; Activity [8]: 21.45%; inhibition [9]: Dose-dependent effect; Activity [10]: 23.43%; IC50 [11]: 41 to 188 nM; Activity [12]: Dose-dependent effect; Activity [13]: Dose-dependent effect; Activity [14]: 27.88%; Activity [15]: 24.16%; Activity [16]: 37.02%; Activity [17]: 61.78%; Activity [18]: Dose-dependent effect; IC50 [19]: 41 to 188 nM; inhibition at 0.05 µM [20]: 85%; Activity [21]: 2.48%; Activity [22]: Dose-dependent effect; IC50 [23]: 159 nM; Activity [24]: 12.2%; IC50 [25]: 41 to 188 nM; Activity [26]: 14.06%; viability at 0.1 µM [27]: 13%; Activity [28]: 46.89%; viability at 0.05 µM [29]: 34.7%; viability at 0.25 µM [30]: 4.73%; Activity [31]: Active; Activity [32]: 62.42%; Activity [33]: 56.27%; inhibition at 0.5 µM [34]: 62.8%; Activity [35]: Dose-dependent effect; Activity [36]: 22.46%; IC50 [37]: 197 nM; Activity [38]: 18.52%; IC50 [39]: 41 to 188 nM; IC50 [40]: 41 to 188 nM; Activity [41]: Dose-dependent effect; Activity [42]: Dose-dependent effect
